The values that follow come from US7879792B2, “Synthetic peptide inhibitors of thrombin and thrombin activation of protease activated receptors 1 and 4” (The Regents of the University of Michigan, priority 2005, dated 2011).

Usually Ki stands for the dissociation constant of the complex between target and ligand, obtained from inhibition or displacement.

One experiment addresses thrombin (Homo sapiens, UniProt P00734). To be noted: read-out: Ki, retrobinders to the active site of thrombin; cited from earlier work.
Experiment [1] relates to γ-thrombin-induced platelet aggregation. Kind of experiment: γ-thrombin-induced platelet aggregation in human platelet-rich plasma. The format is cell-based. How it is done:
Fresh whole blood was collected and mixed with 0.013 M sodium citrate and platelet-rich plasma was prepared according to the method of Meloni et al., J. Biol. Chem. 266, 6786 (1991). Platelet-rich plasma with a normalized platelet count between 2-2.5×10^8 platelets/ml was added to a cuvette of an aggregometer (Chronlog Corp., Havertown, Pa.), standardized using the protocol of Meloni et al., supra. Peptides to be examined were added to the cuvette and the mixture stabilized for a few moments. Once the baseline was stabilized, γ-thrombin (10-70 nM) (Haematologic Technologies, Essex Junction, Vt.) was added to determine the minimal concentration of the agonist necessary to achieve full platelet aggregation. All investigations with peptides were performed using threshold concentrations of γ-thrombin. Aggregation was allowed to proceed for 5 minutes before stopping.
Table III is a tabulation of the library of peptides prepared and their influence on γ-thrombin-induced platelet aggregation in platelet-rich plasma. […] The numbers in the column represent the minimal concentration (mM) of the peptide that blocked 100% γ-thrombin-induced platelet aggregation of platelets in human platelet-rich plasma.
Human platelet samples were stimulated with 40 nM human gamma thrombin in each experiment.

For experiment [2], the system named is normal human lung fibroblasts (NHLF). Kind of experiment: α-thrombin-induced calcium mobilization in normal human lung fibroblasts. The experiment is classed as cell-based. To be noted: 2 nM alpha thrombin. How it is done: The second assay developed to assess peptides from the combinatorial libraries uses inhibition of α-thrombin-induced calcium mobilization in fibroblasts. Normal human lung fibroblasts (NHLF) were purchased from Clonetics, San Diego, Calif., an affiliate of Bio-Wittaker, Walkersville, Md. The cytoplasmic free Ca^2+ concentration ([Ca^2+]i) was measured using the fluorescent Ca^2+ indicator fura-2 (Molecular Probes, Inc., Eugene, Oreg.). Suspension of fibroblasts in Hepes-Tyrode's buffer were loaded with fura-2 by incubation at 37° C. with 2 μM fura-2/acetoxymethyl ester for 45 minutes according to the method of Rasmussen et al., J. Biol. Chem. 268, 14322 (1993). The labeled fibroblasts were separated from excess probe by washing by centrifugation at 1000 rpm (180 xg). Aliquots of the labeled fibroblasts were transferred into a quartz cuvette with a magnetic stirrer, which was then placed in a thermostatically controlled chamber at 37° C. in a fluorescence spectrophotometer (Perkin-Elmer LS50B spectrofluorometer, Chicago, Ill.). Reagents, test peptide, and α-thrombin (0.25-2 nM), were sequentially added directly to the cuvette. The excitation wavelengths varied between 340 and 380 nm. Fluorescence was measured by recording emitted light at 510 nm as reported by Fisher et al., Mol Pharm. 35, 195 (1989). The minimum emission was determined on a solubilized fibroblast sample in the presence of 10 mM EDTA; maximum emission was determined on the same sample with 10 mM Ca^2+ added. The intrafibroblast free Ca^2+ concentration was calculated by the method of Grykiewicz et al., J. Biol. Chem. 260, 3440 (1985). The ratio of the fluorescence readings was calculated as R=340/380 nm and processed according to the equation [Ca^2+]i=KD((R−Rmin)/Rmax−R))(Sf2/Sb2) to determine the intrafibroblast free Ca^2+ concentration. The KD for fura-2 was assumed to be 224 nM. Rmax and Rmin are the maximum and minimum fluorescence ratios measured at the end of the experiment, respectively; Sf2 and Sb2 are the fluorescence values at 380 nm in the absence and presence of saturating [Ca^2+], respectively. The reaction was monitored for 3-5 minutes.
For orientation: A change in cytosolic calcium serves as a functional read-out for many receptors and channels.

The next experiment has as its target human α-thrombin (Homo sapiens, UniProt P00734). The experiment is described as follows: inhibition of α-thrombin hydrolysis of chromogenic substrate. The experiment is classed as biochemical. The following applies: Ki (μM) + SD, αIIa (2 nM), alpha-thrombin 2 nM, Sar-Pro-Arg-paranitroanilide.
The next experiment addresses γ-thrombin. The experiment is described as follows: inhibition of γ-thrombin hydrolysis of chromogenic substrate. The following applies: read-out: Ki (μM) + SD, γIIa (2 nM); gamma-thrombin 2 nM, Sar-Pro-Arg-paranitroanilide. The experiment is classed as biochemical, human.
The next experiment concerns C57BL6 mice. Kind of experiment: Rose Bengal model for arterial thrombosis, time to carotid artery occlusion. The experiment is classed as in vivo, mouse. The following applies: 0.4 to 1.61 mg/kg IP. An excerpt:
C57BL6 mice 6 to 16 weeks of age were anesthetized by intraperitoneal injection with sodium pentobarbital and placed in the supine position on a dissecting microscope (Nikon SMZ-2T, Mager Scientific, Inc., Dexter, Mich.). A midline surgical incision was made to expose the right common carotid artery and a Doppler flow probe (Model 0.5 VB, Transonic Systems, Ithaca, N.Y.) is placed under the vessel. The probe was connected to a flowmeter (Transonic Model T106) and was interpreted with a computerized data acquisition program (Windaq, DATAQ Instruments, Arkron, Ohio). Rose Bengal (4,5,6,7-tetrachloro-3′,6-dihydroxy-2,4,5,7-tetraiodospiro(isobenzofuran-1(3H), 9 [9H] xanthan)-3-1 dipotassium salt) (Fisher Scientific, Fair Lawn, N.J.) at 50 mg/kg in 0.9% saline) was then injected into the tail vein in a 0.12 ml volume (Eitzman et al., Blood 95, 577 (2000)). After injection into the tail vein, a green laser light (Melles Griot, Carlsbad, Calif.) at a wavelength of 540 nm was applied 6 cm from the carotid artery. Flow is monitored continuously from the onset of injury. The time to occlusion was determined only after the vessel remained closed with a cessation of blood flow for 20 min. […] These investigations indicate that these compounds are able to prevent thrombosis in the whole animal in vivo.

Entries after “also recorded” stand apart in the source; their conditions may differ. Where a SMILES comes first, the peptide text is derived from it.

As for “β-Ala-Lys-2Lys-4(Arg-Pro-Pro-Gly-Phe) [MAP4-RPPGF]”, the Ki at thrombin was 1750 µM.

For the compound `Cc1ccc(C[C@H](NC(=O)[C@@H](CO)NC(=O)[C@@H]2CCCN2C(=O)[C@@H]2C[C@@H]3CCCC[C@@H]3N2C(=O)[C@H](N)CCCNC(=N)N)C(N)=O)cc1` [rOicPsF(p-Me), D-Arg-Oic-Pro-D-Ser-Phe(p-Me)] (HELM PEPTIDE1{[dR].[O=C([C@@H]1C[C@@H]2CCCC[C@@H]2N1[*:1])[*:2]].P.[dS].[Cc1ccc(C[C@H](N[*:1])C(=O)[*:2])cc1].[am]}$$$$V2.0), the “Concentration of Peptide [mM] That Gives 100% Inhibition” value in experiment [1] (40 nM human gamma thrombin, human platelet-rich plasma) turned out to be 0.016 mM. The “concentration that abolished γ-thrombin-induced platelet aggregation” value in experiment [1] (40 nM γ-thrombin) was found to be 16 µM. For the same compound, in experiment [2] (0.00038 mM peptide), the “alpha thrombin-induced calcium mobilization” value is listed as “full recovery”. The figures for the “inhibition of thrombin-induced calcium mobilization” value in experiment [2] (0.003 mM peptide) and in experiment [2] (0.08 mM peptide) were 59% and 97%, respectively. Further, the Ki on human α-thrombin was 6.4 to 10.6 µM; at γ-thrombin, 42.2 ± 6 µM. Moreover, the “time to occlusion of the mouse right carotid artery” value in the experiment on C57BL6 mice was “significant prolongation; also recorded: prolonged”.
